Data on 17 molecules can be found in ChEMBL document CHEMBL3868606, “Novel 5-nitropyrimidine derivatives bearing endo-azabicyclic alcohols/amines as potent GPR119 agonists” (Bioorg Med Chem, 2017).

Test [1] concerns the target T1, Glucose-dependent insulinotropic receptor (Homo sapiens, UniProt Q8TDV5).
T1 sequence (Q8TDV5 whole entry): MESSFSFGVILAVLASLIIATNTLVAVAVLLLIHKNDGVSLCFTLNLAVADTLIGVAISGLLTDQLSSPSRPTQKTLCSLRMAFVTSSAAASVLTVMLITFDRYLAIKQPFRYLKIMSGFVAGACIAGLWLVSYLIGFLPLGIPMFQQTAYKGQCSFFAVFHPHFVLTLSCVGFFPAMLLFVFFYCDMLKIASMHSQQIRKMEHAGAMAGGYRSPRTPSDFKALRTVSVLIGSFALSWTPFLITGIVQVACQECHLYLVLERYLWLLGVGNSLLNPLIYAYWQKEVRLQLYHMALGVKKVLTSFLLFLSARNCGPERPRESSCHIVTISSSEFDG
The test is described as follows: Agonist activity at human GPR119 expressed in HEK293 cells assessed as stimulation of cAMP level measured after 60 mins by HTRF assay. It is filed as functional, cell-based. (Changes in cAMP serve as a functional read-out for many G protein-coupled receptors.)

The target of test [2] is T2, Glucose-dependent insulinotropic receptor (Homo sapiens) (UniProt Q8TDV5).
T2 sequence (whole entry): T1 sequence (Q8TDV5 whole entry)
The test is described as follows: Agonist activity at human GPR119 expressed in HEK293 cells assessed as stimulation of cAMP level measured after 60 mins by HTRF assay relative to OEA. It counts as functional, cell-based.

The EC50 is the concentration that produces a half-maximal response. Usually Emax stands for the size of the effect at its maximum, as opposed to the concentration needed.

For the molecule `CS(=O)(=O)c1ccc(Nc2ncnc(NC3C[C@H]4CC[C@H](C3)N4C(=O)OCC3CC3)c2[N+](=O)[O-])c(F)c1` (relative stereo), in test [1], the EC50 is more than 2000 nM. Further, in test [2], the Emax came to 25.1%.
Consider `CC(C)(C)OC(=O)N1[C@@H]2CC[C@@H]1CC(Nc1ncnc(Nc3ccc(C#N)cc3Cl)c1[N+](=O)[O-])C2` (relative stereo), for which the concentration giving a half-maximal response (EC50) in test [1] was 205 nM. In addition, the Emax in test [2] worked out at 59%.
For `CC(C)(C)OC(=O)N1[C@@H]2CC[C@@H]1CC(Oc1ncnc(Oc3ccccc3Cl)c1[N+](=O)[O-])C2` (relative stereo) the same measures were 44.2 nM and 89.8%.
The like results for `CC(C)(C)OC(=O)N1[C@@H]2CC[C@@H]1CC(Nc1ncnc(Nc3ccc(C#N)cc3F)c1[N+](=O)[O-])C2` (relative stereo) were, in that order, 1.3 nM and 114%.
The like results for `CC(C)(C)OC(=O)N1[C@@H]2CC[C@@H]1CC(Oc1ncnc(Nc3ccc(S(C)(=O)=O)cc3F)c1[N+](=O)[O-])C2` (relative stereo) were, in that order, 1.5 nM and 116%.
`CC(C)OC(=O)N1[C@@H]2CC[C@@H]1CC(Oc1ncnc(Nc3ccc(S(C)(=O)=O)cc3F)c1[N+](=O)[O-])C2` (relative stereo): in test [1], the EC50 came out at 0.6 nM. Also, in test [2], the Emax stood at 103%.
The like results for `CS(=O)(=O)c1ccc(Nc2ncnc(OC3C[C@H]4CC[C@H](C3)N4C(=O)OCC3CC3)c2[N+](=O)[O-])c(F)c1` (relative stereo) were, in that order, more than 2000 nM and 21.3%.
Consider `CS(=O)(=O)c1ccc(Nc2ncnc(NC3C[C@H]4CC[C@H](C3)N4S(=O)(=O)c3ccc(F)cc3)c2[N+](=O)[O-])c(F)c1` (some centres undefined), for which the 50% effective concentration (EC50) in test [1] was more than 2000 nM. Moreover, in test [2], the Emax came out at 24.8%.
The like results for `CC(C)(C)OC(=O)N1[C@@H]2CC[C@@H]1CC(Nc1ncnc(Nc3ccc(S(C)(=O)=O)cc3F)c1[N+](=O)[O-])C2` (relative stereo) were, in that order, 1.5 nM and 99%.
Take `CC(C)(C)OC(=O)N1[C@@H]2CC[C@@H]1CC(Nc1ncnc(Nc3ccccc3C#N)c1[N+](=O)[O-])C2` (relative stereo): the EC50 in test [1] is more than 2000 nM. Also, the maximum response (Emax) in test [2] was determined as 46.2%.
For `CCOC(=O)N1[C@@H]2CC[C@@H]1CC(Nc1ncnc(Nc3ccc(S(C)(=O)=O)cc3F)c1[N+](=O)[O-])C2` (relative stereo) the same measures were more than 2000 nM and 32.5%.
For `CS(=O)(=O)c1ccc(Nc2ncnc(OC3C[C@H]4CC[C@H](C3)N4S(=O)(=O)c3ccc(F)cc3)c2[N+](=O)[O-])c(F)c1` (some centres undefined) the same measures were 3.5 nM and 88.8%.
The like results for `CS(=O)(=O)c1ccc(Nc2ncnc(NC3C[C@H]4CC[C@H](C3)N4S(C)(=O)=O)c2[N+](=O)[O-])c(F)c1` (relative stereo) were, in that order, more than 2000 nM and 49.5%.
As to `CC(C)OC(=O)N1[C@@H]2CC[C@@H]1CC(Nc1ncnc(Nc3ccc(S(C)(=O)=O)cc3F)c1[N+](=O)[O-])C2` (relative stereo), the EC50 in test [1] is 6.2 nM. In test [2], the maximum response (Emax) amounted to 54.5%.
The like results for `CS(=O)(=O)c1ccc(Nc2ncnc(OC3C[C@H]4CC[C@H](C3)N4S(C)(=O)=O)c2[N+](=O)[O-])c(F)c1` (relative stereo) were, in that order, 1.6 nM and 117%.
Consider `CCOC(=O)N1[C@@H]2CC[C@@H]1CC(Oc1ncnc(Nc3ccc(S(C)(=O)=O)cc3F)c1[N+](=O)[O-])C2` (relative stereo), for which the EC50 in test [1] came out at 1.4 nM. For the same molecule, the Emax in test [2] came to 116%.
`CC(C)(C)OC(=O)N1[C@@H]2CC[C@@H]1CC(Nc1ncnc(Oc3ccccc3Cl)c1[N+](=O)[O-])C2` (relative stereo): the EC50 in test [1] is more than 2000 nM. The Emax in test [2] stood at 37.2%.
